Measurements reported in US8129197B2, “Cholesterol loaded insect cell membranes as test proteins” (SOLVO Biotechnológial ZRT., priority 2006, dated 2012).
Where two headings read alike, the source gives them in different places.

Experiments:
ABCG2 [1] = molecular target: T1, ABCG2 (Homo sapiens, UniProt Q9UNQ0); test: Vanadate sensitive ABCG2-ATPase assay in ABCG2-Sf9 (insect cell) membranes
T1 sequence (Q9UNQ0 1-655): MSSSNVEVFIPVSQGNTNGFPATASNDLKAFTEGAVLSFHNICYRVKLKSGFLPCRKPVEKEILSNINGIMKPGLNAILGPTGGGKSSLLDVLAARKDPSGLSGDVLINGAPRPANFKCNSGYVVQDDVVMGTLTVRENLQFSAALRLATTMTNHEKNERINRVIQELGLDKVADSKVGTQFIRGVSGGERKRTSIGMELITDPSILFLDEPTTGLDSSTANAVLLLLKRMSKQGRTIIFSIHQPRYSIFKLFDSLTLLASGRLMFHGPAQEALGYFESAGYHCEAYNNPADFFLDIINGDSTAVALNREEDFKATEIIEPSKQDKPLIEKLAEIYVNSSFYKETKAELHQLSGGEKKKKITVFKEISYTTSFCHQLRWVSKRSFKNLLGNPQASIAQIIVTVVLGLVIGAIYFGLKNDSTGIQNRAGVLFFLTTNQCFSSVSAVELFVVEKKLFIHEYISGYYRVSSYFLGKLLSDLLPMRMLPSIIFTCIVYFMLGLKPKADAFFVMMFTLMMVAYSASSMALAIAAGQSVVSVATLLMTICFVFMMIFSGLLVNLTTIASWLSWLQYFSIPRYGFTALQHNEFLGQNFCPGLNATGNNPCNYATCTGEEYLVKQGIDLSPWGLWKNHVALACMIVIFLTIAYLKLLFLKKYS
Protocol: (§1) Measurement of transporter activity: The ATPase activity of transporters are measured based on their vanadate sensitivity as known in the literature (see Noe et al. Hepatology, 2001, Vol. 33, No. 5, pp 1223-31; Schmitt et al. J. Neural. Transm., in press; Özvegy C et al. “Functional characterization of the human multidrug transporter, ABCG2, expressed in insect cells” Biochem Biophys Res Commun. 2001 July 6; 285(1):111-7.; Sarkadi, B. et al. (1992) Expression of the human multidrug resistance cDNA in insect cells generates a high activity drug-stimulated membrane ATPase. J Biol Chem 267: 4854-4858.).
(§2) The samples treated with cyclodextrin, or cholesterol@RAMEB complex was compared with untreated vesicles.
(§3) Briefly, as an example, membrane vesicles (20 μg/well) were incubated in ATPase assay buffer (10 mM MgCl2, 40 mM MOPS-Tris (pH 7.0), 50 mM KCl, 5 mM dithiothreitol, 0.1 mM EGTA, 4 mM sodium azide, 1 mM ouabain), 5 mM ATP and various concentrations of test drugs for 40 min at 37° C. ATPase activities were determined as the difference of inorganic phosphate liberation measured with and without the presence of 1.2 mM sodium orthovanadate (vanadate-sensitive ATPase activity).
EC50 is defined according to the International Union of Pharmacology Committee (Neubig, R. R., Spedding, M., Kenakin, T. and Christopoulos, A. (2003) International Union of Pharmacology Committee on Receptor Nomenclature and Drug Classification. XXXVIII. Update on terms and symbols in quantitative pharmacology. Pharmacol Rev 55: 597-606.).
The Michaelis-Menten parameters of maximal velocity (Vmax) and drug affinity (Km) were obtained from plots of the ATPase activity as a function of test drug concentration by nonlinear regression of the following equation:
where v=enzyme activity (nmol Pi/min/mg), Vmax=maximal ATPase activity (nmol Pi/min/mg), Km=Michaelis-Menten constant for the tested substrate (nM) and [S] substrate concentration (nM). The equation 3 was used also for curve fitting on vesicular transport graphs.

wild-type ABCG2 = molecular target: T2, wild-type ABCG2 (Homo sapiens, UniProt Q9UNQ0); test: Vesicular transport assay, inside-out ABCG2-Sf9 membrane vesicles
T2 sequence (Q9UNQ0 1-655): T1 sequence (Q9UNQ0 1-655)
Protocol: Measurement of the vesicular transport activity: The transport activity measurements were carried out with purified membrane vesicles containing ABCG2 or Bsep isolated from baculovirus infected Sf9 (Spodoptera frugiperda) cells or mammalian (ABCG2-M) cells. The membrane preparations contain 5-16% closed, inside-out oriented, membrane vesicles. The transporter pumps the molecules inside of these vesicles. The vesicles can be separated by rapidly filtrating of the membrane suspension through a glass filter or through a nitrocellulose membrane (using vacuum).
The quantitative determination of the transported molecule can be done in several ways, like: HPLC, LC/MS, but also fluorescent or radioactive labeling is also suitable. Tritium labeled substrates were used in the assays and the mode of detection was liquid-scintillation.
Measurement of the vesicular transport activity in case of ABCG2: More closely, as examples, inside-out membrane vesicles were incubated in the presence or absence of 4 mM ATP. […] The transport was stopped by addition of cold wash buffer (40 mM MOPS-Tris (pH 7.0), 70 mM KCl).
The transport was stopped by addition of cold wash buffer (10 mM Tris-HCl, pH 7.4; 250 mM sucrose and 100 mM NaCl).
For estrone-3-sulfate vesicular transport 10 mM Tris-HCl, (pH 7.4), 250 mM sucrose, and 10 mM MgCl2 containing buffer were incubated at 32° C. for 1 min. The transport was stopped by addition of cold wash buffer (10 mM Tris-HCl, pH 7.4; 250 mM sucrose and 100 mM NaCl).
The incubation mix was then rapidly filtered through class B glass fiber filters (pore size, 0.1 μm). Filters were washed with 5×200 μl of ice cold wash buffer and radioactivity retained on the filter was measured by liquid scintillation counting. ATP-dependent transport was calculated by subtracting the values obtained in the absence of ATP from those in the presence of ATP.
Exemplary Assay Design and Main Steps for ABCG2 • Prepare an appropriate concentration of membrane suspension in assay buffer; add the unlabeled and ^3H-labeled substrates to the suspension.

ABCG2 [2] = molecular target: T1, ABCG2; test: Vanadate sensitive ABCG2-ATPase assay in ABCG2-M (mammalian cell) membranes
Protocol: Human membrane vesicle preparations (ABCG2-M) as well as membrane vesicle preparations obtained from insect cells expressing ABCG2, (MXR-Sf9) were obtained from Solvo Biotechnology (Budapest, Hungary). Both membranes are overexpressing the wild type version of ABCG2. The insect membrane vesicle preparations were produced using recombinant baculoviruses encoding ABCG2 (Ozvegy et al., 2002). Sf9 cells were cultured and infected with recombinant baculovirus stocks as described earlier (Sarkadi et al., 1992). Purified membrane vesicles from baculovirus-infected Sf9 cells were prepared essentially as described previously (Sarkadi et al., 1992). Membrane protein content was determined using the BCA method (Pierce Biotechnology, Rockford, Ill., USA).
as §1, §2, §3

[3] = substrate: CN(Cc1cnc2nc(N)nc(N)c2n1)c1ccc(C(=O)N[C@@H](CCC(=O)O)C(=O)O)cc1; test: cells, lysate or membranes named

Molecule: Nc1ncnc2c1ncn2[C@@H]1O[C@H](COP(=O)(O)OP(=O)(O)OP(=O)(O)O)[C@@H](O)[C@H]1O [ATP]
- Km (ABCG2 [1]): 2000 µM
- ATP concentration of maximum MTX transport rate (wild-type ABCG2): about 5 mM
- Km (wild-type ABCG2): 600 to 800 µM
- Km (ABCG2 [2]; read-out: KM of vanadate sensitive basal ATPase activity with respect to ATP, ABCG2-M membranes): 2200 µM

Molecule: COc1cccc2c1C(=O)c1c(O)c3c(c(O)c1C2=O)C[C@@](O)(C(=O)CO)C[C@@H]3O[C@H]1C[C@H](N)[C@H](O)[C@H](C)O1 [Doxorubicin]
- Level of stimulation (vanadate sensitive ATPase activity in %) (ABCG2 [1]; human, 40 min, 50 uM, pH 7): 83 ± 18 (3) %

Molecule: C[C@]12CC[C@@H]3c4ccc(O)cc4CC[C@H]3[C@@H]1CC[C@@H]2O[C@@H]1O[C@H](C(=O)O)[C@@H](O)[C@H](O)[C@H]1O [ESG, estradiol 17-beta glucuronide]
- apparent Vmax of ESG uptake (wild-type ABCG2; cholesterol-loaded vesicles): 700 pmol ESG/mg membrane protein/min
- apparent Vmax of ESG uptake (wild-type ABCG2; control Sf9 membrane vesicles): less than 50 pmol ESG/mg membrane protein/min
- Km (wild-type ABCG2; read-out: apparent Km for ESG, cholesterol-loaded vesicles): ~45 µM

Molecule: C[C@]12CC[C@@H]3c4ccc(OS(=O)(=O)O)cc4CC[C@H]3[C@@H]1CCC2=O [Estrone-3-sulfate, estrone 3-sulfate]
- Vmax (ABCG2-ATPase) (ABCG2 [1]): 35.58 nmol Pi/mg prot./min
- Vmax (ABCG2-ATPase) (ABCG2 [2]): 38.87 nmol Pi/mg prot./min

Molecule: O=C(O)c1cc(/N=N/c2ccc(S(=O)(=O)Nc3ccccn3)cc2)ccc1O [Sulfasalazine, sulfasalazine]
- Effect on ABCG2-ATPase activity (in words) (ABCG2 [1]): weak activator
- Level of stimulation (vanadate sensitive ATPase activity in %) (ABCG2 [1]; human, 40 min, 20 uM, pH 7): 71% (3)
- Increase of vanadate sensitive ABCG2 ATPase activity in the presence of the substrate (ABCG2 [1]; human, 40 min, pH 7): 5 nmol/Pi/mg prot/min
- Vanadate sensitive ABCG2 ATPase activity activated by the substrate (ABCG2 [1]; human, 40 min, pH 7): 58 nmol/Pi/mg prot/min
- Effect on ABCG2-ATPase activity (in words) (ABCG2 [2]): significantly stimulated
- Vanadate sensitive ABCG2 ATPase activity activated by the substrate (ABCG2 [2]; human, 40 min, pH 7): 40 nmol/Pi/mg prot/min

Molecule: CC[C@@]1(O)C(=O)OCc2c1cc1n(c2=O)Cc2cc3c(CN(C)C)c(O)ccc3nc2-1 [Topotecan, topotecan]
- Level of stimulation (vanadate sensitive ATPase activity in %) (ABCG2 [1]; human, 40 min, 200 uM, pH 7): 31%
- Effect on ABCG2-ATPase activity (in words) (ABCG2 [1]; human, 40 min, pH 7): can not be activated
- Effect on ABCG2-ATPase activity (in words) (ABCG2 [2]): significantly stimulated

Molecule: COc1cc2ncnc(Nc3ccc(F)c(Cl)c3)c2cc1OCCCN1CCOCC1 [ZD 1839, Gefitinib]
- Level of stimulation (vanadate sensitive ATPase activity in %) (ABCG2 [1]; human, 40 min, 5 uM, pH 7): 73 ± 19 (3) %

Molecule: O=C1c2c(O)ccc(O)c2C(=O)c2c(NCCNCCO)ccc(NCCNCCO)c21 [mitoxantrone]
- Effect on ABCG2-ATPase activity (in words) (ABCG2 [1]): did not display any effect

Molecule: Randomly methylated-β-cyclodextrin [CD]
- Effect of membrane pretreatment on ABCG2-dependent transport activity (in words) (wild-type ABCG2): did not significantly affect

Molecule: rhodamine
- Effect on ABCG2-ATPase activity (in words) (ABCG2 [1]; cholesterol loaded Sf9 membranes): did not display any effect

B1: wild-type ABCG2 (Homo sapiens) (protein)
chain: T1 sequence (Q9UNQ0 1-655)
- Km ([3]; other: ABCG2-Sf9 membranes): 3900 µM
- Km ([3]; other: both untreated and C-CD pretreated vesicles): 500 µM
- Km ([3]; other: untreated membranes, ± S.D.): 935 µM

B2: ABCG2 (Homo sapiens) (protein)
chain: T1 sequence (Q9UNQ0 1-655)
- Km ([3]; other: ABCG2-M membranes, pH 7.0, 37.0 °C): 3600 µM
